Read-outs that look alike come from different tables or passages of the source.
Key:
[1] = system: diabetic Yucatan minipigs; experiment: Glucose lowering after s.c. bolus in type 1 diabetic Yucatan minipigs (PD); format: in vivo, minipig; settings: individual animal
Procedure: Data is presented as mean ± SEM, n = 6 animals per dose group. […] Source data are provided as a Source Data file.
IRPAs were characterized in a Type 1 diabetic Yucatan minipig model. Briefly, male Yucatan minipigs, from Sinclair, were rendered Type 1 diabetic by Alloxan injections following a proprietary protocol developed by Sinclair Research Center (Auxvasse, MO). […] Minipigs used in these studies ranged from 10 months to 3 years old, had plasma glucose levels of approximately 300–400 mg/dL and were instrumented with two Jugular vein vascular access ports (VAP).
IRPAs were administered to diabetic minipigs by subcutaneous injection. […] After dosing, sampling continued for 18 h.

[2] = system: SAOS2/B10 cells; experiment: Cellular proliferation, EdU incorporation (Click-it EdU); format: cell-based
Text: 3. […]
Ethynyl-2′-deoxyuridine; ThermoFisher Scientific) assay. […]

Tresiba: insulin Degludec from Novo Nordisk, a lipidated insulin
ΔGlucose ([1]; 2 h post s.c. dose, replicate 1): -38 mg/dL
ΔGlucose ([1]; 2 h post s.c. dose, replicate 2): -21 mg/dL
ΔGlucose ([1]; 2 h post s.c. dose, replicate 3): 5 mg/dL
ΔGlucose ([1]; 2 h post s.c. dose, replicate 4): 79 mg/dL
ΔGlucose ([1]; 2 h post s.c. dose, replicate 5): 69 mg/dL
ΔGlucose ([1]; 2 h post s.c. dose, replicate 6): -28 mg/dL
ΔGlucose ([1]; 2 h post s.c. dose, replicate 7): 35 mg/dL
ΔGlucose ([1]; 2 h post s.c. dose, replicate 8): -20 mg/dL
ΔGlucose ([1]; 2 h post s.c. dose, replicate 9): 40 mg/dL
ΔGlucose ([1]; 2 h post s.c. dose, replicate 10): 8 mg/dL
ΔGlucose ([1]; 2 h post s.c. dose, replicate 11): -118 mg/dL
ΔGlucose ([1]; 2 h post s.c. dose, replicate 12): 93 mg/dL
ΔGlucose ([1]; 2 h post s.c. dose, replicate 13): -13 mg/dL
ΔGlucose ([1]; 2 h post s.c. dose, replicate 14): 18 mg/dL
ΔGlucose ([1]; 2 h post s.c. dose, replicate 15): -36 mg/dL
ΔGlucose ([1]; 2 h post s.c. dose, replicate 16): 58 mg/dL
ΔGlucose ([1]; 2 h post s.c. dose, replicate 17): -126 mg/dL
ΔGlucose ([1]; 2 h post s.c. dose, replicate 18): -12 mg/dL
ΔGlucose ([1]; 2 h post s.c. dose, replicate 19): -60 mg/dL
ΔGlucose ([1]; 3 h post s.c. dose, replicate 1): -67 mg/dL
ΔGlucose ([1]; 3 h post s.c. dose, replicate 2): -79 mg/dL
ΔGlucose ([1]; 3 h post s.c. dose, replicate 3): -1 mg/dL
ΔGlucose ([1]; 3 h post s.c. dose, replicate 4): 32 mg/dL
ΔGlucose ([1]; 3 h post s.c. dose, replicate 5): 97 mg/dL
ΔGlucose ([1]; 3 h post s.c. dose, replicate 6): -58 mg/dL
ΔGlucose ([1]; 3 h post s.c. dose, replicate 7): 20 mg/dL
ΔGlucose ([1]; 3 h post s.c. dose, replicate 8): -73 mg/dL
ΔGlucose ([1]; 3 h post s.c. dose, replicate 9): 97 mg/dL
ΔGlucose ([1]; 3 h post s.c. dose, replicate 10): -61 mg/dL
ΔGlucose ([1]; 3 h post s.c. dose, replicate 11): -233 mg/dL
ΔGlucose ([1]; 3 h post s.c. dose, replicate 12): -9 mg/dL
ΔGlucose ([1]; 3 h post s.c. dose, replicate 13): -76 mg/dL
ΔGlucose ([1]; 3 h post s.c. dose, replicate 14): -2 mg/dL
ΔGlucose ([1]; 3 h post s.c. dose, replicate 15): -89 mg/dL
ΔGlucose ([1]; 3 h post s.c. dose, replicate 16): 57 mg/dL
ΔGlucose ([1]; 3 h post s.c. dose, replicate 17): -188 mg/dL
ΔGlucose ([1]; 3 h post s.c. dose, replicate 18): -49 mg/dL
ΔGlucose ([1]; 3 h post s.c. dose, replicate 19): -86 mg/dL
ΔGlucose ([1]; 4 h post s.c. dose, replicate 1): -114 mg/dL
ΔGlucose ([1]; 4 h post s.c. dose, replicate 2): -145 mg/dL
ΔGlucose ([1]; 4 h post s.c. dose, replicate 3): -76 mg/dL
ΔGlucose ([1]; 4 h post s.c. dose, replicate 4): 21 mg/dL
ΔGlucose ([1]; 4 h post s.c. dose, replicate 5): 89 mg/dL
ΔGlucose ([1]; 4 h post s.c. dose, replicate 6): -90 mg/dL
ΔGlucose ([1]; 4 h post s.c. dose, replicate 7): -30 mg/dL
ΔGlucose ([1]; 4 h post s.c. dose, replicate 8): -110 mg/dL
ΔGlucose ([1]; 4 h post s.c. dose, replicate 9): 88 mg/dL
ΔGlucose ([1]; 4 h post s.c. dose, replicate 10): -83 mg/dL
ΔGlucose ([1]; 4 h post s.c. dose, replicate 11): -283 mg/dL
ΔGlucose ([1]; 4 h post s.c. dose, replicate 12): -105 mg/dL
ΔGlucose ([1]; 4 h post s.c. dose, replicate 13): -142 mg/dL
ΔGlucose ([1]; 4 h post s.c. dose, replicate 14): -49 mg/dL
ΔGlucose ([1]; 4 h post s.c. dose, replicate 15): -147 mg/dL
ΔGlucose ([1]; 4 h post s.c. dose, replicate 16): 24 mg/dL
ΔGlucose ([1]; 4 h post s.c. dose, replicate 17): -217 mg/dL
ΔGlucose ([1]; 4 h post s.c. dose, replicate 19): -118 mg/dL
ΔGlucose ([1]; 5 h post s.c. dose, replicate 1): -180 mg/dL
ΔGlucose ([1]; 5 h post s.c. dose, replicate 2): -224 mg/dL
ΔGlucose ([1]; 5 h post s.c. dose, replicate 3): -181 mg/dL
ΔGlucose ([1]; 5 h post s.c. dose, replicate 4): 9 mg/dL
ΔGlucose ([1]; 5 h post s.c. dose, replicate 5): 29 mg/dL
ΔGlucose ([1]; 5 h post s.c. dose, replicate 6): -129 mg/dL
ΔGlucose ([1]; 5 h post s.c. dose, replicate 7): -47 mg/dL
ΔGlucose ([1]; 5 h post s.c. dose, replicate 8): -151 mg/dL
ΔGlucose ([1]; […] post s.c. dose, replicate 4): 27 mg/dL
ΔGlucose ([1]; […] post s.c. dose, replicate 12): -48 mg/dL

IGF-1: insulin-like growth factor 1
EC50 ([2]; geometric mean of all independent titrations, EdU incorporation, four-parameter fit, read-out: Cell Proliferation Assay Total Ave EC50): 0.149 nM
EC50 ([2]; titration 2, read-out: Cell Proliferation Assay EC50-2): 0.397 nM
EC50 ([2]; titration 3, read-out: Cell Proliferation Assay EC50-3): 0.154 nM
EC50 ([2]; titration 4, read-out: Cell Proliferation Assay EC50-4): 0.0819 nM
EC50 ([2]; titration 5, read-out: Cell Proliferation Assay EC50-5): 0.103 nM
EC50 ([2]; titration 6, read-out: Cell Proliferation Assay EC50-6): 0.0688 nM
EC50 ([2]; titration 7, read-out: Cell Proliferation Assay EC50-7): 0.0568 nM
EC50 ([2]; titration 8, read-out: Cell Proliferation Assay EC50-8): 0.842 nM
EC50 ([2]; titration 9, read-out: Cell Proliferation Assay EC50-9): 0.438 nM
EC50 ([2]; titration 10, read-out: Cell Proliferation Assay EC50-10): 0.153 nM

Source: article PMC8854621, “Functionally selective signaling and broad metabolic benefits by novel insulin receptor partial agonists” (Nature Communications, 2022)
